This note sets out measurements from US10583098B2, “Topical co-enzyme Q10 formulations and treatment of pain, fatigue and wounds” (priority 2006, dated 2020).

Structures are written as SMILES.

What all share (type): cell-based
For assay [1], the system named is Human Aortic Smooth Muscle Cells (HASMC). As to the kind of experiment: ATP production in HASMC, Luciferin-Luciferase ATP assay. Particulars: 0-20 μg/ml, 24 h, in words. How it is done:
We have investigated the effect of Q10 on ATP production in Human Aortic Smooth Muscle Cells (HASMC). This cell line was chosen for the study based on its ability to produce ATP at levels detectable by the Luciferin-Luciferase ATP assay. We also studied the effect of The composition comprising about 0.001% to about 60% (w/w) Coenzyme Q10 on Muscle Cell proliferation.
(§1) D-(+)-Glucose at 10 mM (Peiro et al., Brit. Jour. of Pharmacology 133: 967-974 (2001)) was used as an energy substrate for the production of ATP. The wells of the 6-well plate were incubated with 0-20 μg/ml of CoQ10, 1 μg and 20 μg/ml CoQ10, or 1 μg and 20 μg/ml of the Vehicle of Coenzyme Q10, all in Medium 231. The well plates were incubated at 37° C. and 5% CO2 for specified experimental periods. Medium 231 contains 4.6 mM Glu originally, thus only an additional 5.4 mM added to medium (Dr. Gary D. Shipley, Cascade Biologics, Portland, Oreg.).
After incubation, the medium was removed and replaced with cold (4° C.) 1% w/v Trichloroacetic Acid (TCA) as the lysis buffer. This buffer causes almost instantaneous inhibition of ATPases (Kangas et al., Med Biol 62: 338-343 (1984)). The wells were incubated with TCA at room temperature for 5 min with gentle swirling. […]
HASM Cells were incubated at 37° C. and 5% CO2 with 0-20 μg/ml Coenzyme Q10. […] Samples were then taken for quantification of ATP using the Luciferin-Luciferase ATP Assay. […]

The test system is the same in assay [2]. As to the kind of experiment: HASMC proliferation, Coulter cell count. Particulars: for Cell number: 24 h incubation, HASMC; for % Diff vs. Ctrl (24 hr): HASMC cell number. On the procedure: At approximately 80% confluency, the cells were subcultured using Trypsin-EDTA to detach the cells and Defined Trypsin Inhibitor, DTI to neutralize the cell suspension before centrifugation at 2500 RPM for 8 minutes. The supernatant was aspirated and discarded. The resultant cell pellet was then resuspended in fresh Medium 231. A cell count was performed using a hemocytometer before seeding the experimental 6-well plates at 200,000 cells/well.
Q10 was dissolved in ethanol and the solution was diluted with Medium 231 to the required concentrations. The Vehicle used in preparing the composition comprising about 0.001% to about 60% (w/w) Coenzyme Q10 was composed of MCT, BHT, Glycerol, and Sodium Phosphate buffered to pH 7.2 and subjected to sonication, then diluted with Medium 231 to experimental concentrations.
as §1
The well-plates were decanted to empty the wells of the reagents and any residue was aspirated carefully with an electronic pipettor. 0.5 ml Trypsin-EDTA was added to each well for 5-7 minutes to aid detachment. Upon complete detachment as determined under a microscope, 0.5 ml Medium 231 was added to the resultant cell suspension to neutralize the Trypsin. 0.5 ml of this cell suspension was taken for reading in a Coulter cell counter.
In FIG. 2, HASM Cells were incubated at 37° C. and 5% CO2 with 0-20 μg/ml Coenzyme Q10, The composition comprising about 0.001% to about 60% (w/w) Coenzyme Q10, and the Vehicle(V) used in The composition comprising about 0.001% to about 60% (w/w) Coenzyme Q10. The 6-well plates were incubated for 24 h in Medium 231. After treatment with Trypsin-EDTA and gentle scraping, cells were neutralized with Medium 231 and mixed by pipetting. Samples were then taken for quantification using a Coulter cell counter. (*Significant compared to Ctrl, P<0.05; One-way ANOVA and Dunnett's).

Assay [3] has as its system Human neonatal fibroblasts (nFIB). As to the kind of experiment: In vitro incisional wound model, fibroblast migration. Particulars: versus control, in words. How it is done: (§2) The proliferation and migration of keratinocytes and fibroblasts are paramount to the restoration of the cutaneous architecture. […] To test the effect of Q10 on neonatal fibroblasts and keratinocytes, an in vitro incisional wound model was employed. Cells were seeded in 6-well tissue culture plates with supplemented media and incubated for 48 hours to facilitate a 90% confluency level prior to experimentation. A cross-shaped “wound” gap was made among the near confluent monolayer of cells in the center of each well. Detached cells were then washed off with medium. Each well was then replenished with medium with or without Q10. […] Cell migration was quantified by time and percentage of “wound” gap covered by cells that migrated into the gap field. The percentage of gap filled (PGf) was calculated as PGf=(1−At/A0)×100, where At is the gap area at time t, and A0 is the gap area at time 0. […]
(§3) Human neonatal fibroblasts (nFIB) and human neonatal keratinocytes (SC-KC) were grown to ˜90% confluency in T-75 flasks at which time they were trypsinized and seeded into 6-well tissue culture plates. […] Cell migration was quantified by time and percentage of “wound” gap covered by cells that migrated into the gap field. The percentage of gap filled (PGf) was calculated as PGf=(1−At/A0)×100, where A(t) is the gap area at time t, and A(0) is the gap area at time 0. […]

In assay [4] the test system is human neonatal keratinocytes (SC-KC). As to the kind of experiment: In vitro incisional wound model, keratinocyte migration. Particulars: versus control, in words. How it is done:
as §2, §3

Assay [5] has as its system Human neonatal fibroblasts (nFIB). The experiment in a line: Fibroblast proliferation. Particulars: in words. The source says:
(§4) FIGS. 7-10 show the results obtained.

The subject of assay [6] is human neonatal keratinocytes (SC-KC). The experiment in a line: Keratinocyte proliferation. Particulars: in words.
Description: as §4

Turning to `COC1=C(OC)C(=O)C(C/C=C(\C)CC/C=C(\C)CC/C=C(\C)CC/C=C(\C)CC/C=C(\C)CC/C=C(\C)CC/C=C(\C)CC/C=C(\C)CC/C=C(\C)CCC=C(C)C)=C(C)C1=O` [Q-10, 2,3-dimethoxy-5-methyl-6-decaprenyl-1,4-benzoquinone], the “Effect on ATP production” value is “increases ATP production” in assay [1] and “stimulatory effect on ATP production” in assay [1] (listed as Coenzyme Q10). Besides, the Cell number was 42.4 10^4 in assay [2] (1.0 μg/ml) and 63.1 10^4 in assay [2] (20.0 μg/ml). Further, the “% Diff vs. Ctrl (24 hr)” value in assay [2] (1.0 μg/ml) was 65.1%; in assay [2] (20.0 μg/ml), 145.6%. Besides, the “Fibroblast migration (rate of gap coverage)” value is “statistically significant increase in the rate of gap coverage” in assay [3]; “enhances the migration and proliferation” in assay [3] (listed as coenzyme Q10). The “Keratinocyte migration (rate of gap coverage)” value in assay [4] is “statistically significant increase in the rate of gap coverage”; in assay [4] (listed as coenzyme Q10) it was “enhances the migration and proliferation”. Moreover, in assay [5], the Fibroblast proliferation result was “enhances the migration and proliferation”. In addition, the Keratinocyte proliferation entry in assay [6] is “enhances the migration and proliferation”.
